Assay: RSV-A Assay: The description is Japanese.

Row | Structure (SMILES) | EC50
1 | O=C1Nc2ccccc2C(c2ccccc2)=NC1Nc1nnc(CCC(F)(F)F)o1 (stereo not drawn) | > 800 nM
2 | O=C1Nc2ccccc2C(c2ccccc2)=NC1Nc1nnc(CCc2ccccc2)o1 (stereo not drawn) | > 800 nM
3 | CC(C)c1nnc(NC2N=C(c3ccccc3)c3ccccc3NC2=O)o1 (stereo not drawn) | > 800 nM
4 | CN1CCN(c2ncccc2-c2nnc(NC3N=C(c4ccccc4)c4ccccc4NC3=O)o2)CC1 (stereo not drawn) | > 800 nM
5 | O=C1Nc2ccccc2C(c2ccccc2)=NC1Nc1nnc(-c2cccnc2N2C[C@@H]3C[C@H]2CO3)o1 (stereo partly drawn) | > 800 nM
6 | COC(=O)c1sc(Br)cc1N1CCOCC1 | < 400 nM
7 | O=C1Nc2ccccc2C(c2ccccc2)=NC1Nc1nnc(-c2cccnc2N2C3CCC2COC3)o1 (stereo not drawn) | > 800 nM
8 | O=C1Nc2ccccc2C(c2ccccc2)=N[C@@H]1Nc1nnc(-c2oc3ccccc3c2N2CCOCC2)o1 | < 400 nM
9 | N#CC1CCN(c2ncccc2-c2nnc(NC3N=C(c4ccccc4)c4ccccc4NC3=O)o2)CC1 (stereo not drawn) | > 800 nM
10 | COC1CN(c2cc(C(F)(F)F)cnc2-c2nnc(N[C@H]3N=C(c4ccccc4)c4ccccc4NC3=O)o2)C1 | > 800 nM
11 | CCCc1nnc(NC2N=C(c3ccccc3)c3ccccc3NC2=O)o1 (stereo not drawn) | > 800 nM
12 | O=C1Nc2ccccc2C(c2ccccc2)=NC1Nc1nnc(-c2ccccc2-c2ccncc2)o1 (stereo not drawn) | > 800 nM
13 | COCc1nnc(NC2N=C(c3ccccc3)c3ccccc3NC2=O)o1 (stereo not drawn) | > 800 nM
14 | C[C@H]1COCCN1c1ncccc1-c1nnc(NC2N=C(c3ccccc3)c3ccccc3NC2=O)o1 (stereo partly drawn) | > 800 nM
15 | O=C1Nc2ccccc2C(c2ccccc2)=N[C@@H]1Nc1nnc(-c2cccnc2N2CCn3ncnc3C2)o1 | > 800 nM
16 | O=C1Nc2ccccc2C(c2ccccc2)=N[C@@H]1Nc1nnc(-c2ncc(C(F)(F)F)cc2N2CCC(F)CC2)o1 | > 800 nM
17 | O=C1Nc2ccccc2C(c2ccccc2)=N[C@@H]1Nc1nnc(-c2ncc(C(F)(F)F)cc2N2C3CCC2COC3)o1 | < 400 nM
18 | CN1CCN(c2ccc(-c3nnc(NC4N=C(c5ccccc5)c5ccccc5NC4=O)o3)cc2)CC1 (stereo not drawn) | > 800 nM
19 | O=C1Nc2ccccc2C(c2ccccc2)=NC1Nc1nnc(C2CCCC2)o1 (stereo not drawn) | > 800 nM
20 | O=C1Nc2ccccc2C(c2ccccc2)=NC1Nc1nnc(-c2ccc(N3CCCC3)cc2)o1 (stereo not drawn) | in the range around 600 nM
21 | C[C@@H]1COCCN1c1ncccc1-c1nnc(NC2N=C(c3ccccc3)c3ccccc3NC2=O)o1 (stereo partly drawn) | < 400 nM
22 | CC1(C)CC(c2nnc(NC3N=C(c4ccccc4)c4ccccc4NC3=O)o2)C1 (stereo not drawn) | > 800 nM
23 | O=C1Nc2ccccc2C(c2ccccc2)=NC1Nc1nnc(-c2ccc(-n3cncn3)c(F)c2)o1 (stereo not drawn) | in the range around 600 nM
24 | CN[C@H](c1ccccc1)c1nnc(NC2N=C(c3ccccc3)c3ccccc3NC2=O)o1 (stereo partly drawn) | > 800 nM

Row | Structure (SMILES) | EC50
25 | O=C1Nc2ccccc2C(c2ccccc2)=NC1Nc1nnc(C2CCNC2)o1 (stereo not drawn) | > 800 nM
26 | O=C1Nc2ccccc2C(c2ccccc2)=NC1Nc1nnc([C@@H]2CCCN2C2CCNCC2)o1 (stereo partly drawn) | > 800 nM
27 | CN(C)CCOc1ccccc1-c1nnc(NC2N=C(c3ccccc3)c3ccccc3NC2=O)o1 (stereo not drawn) | > 800 nM
28 | O=C1Nc2ccccc2C(c2ccccc2)=NC1Nc1nnc([C@@H]2CCCO2)o1 (stereo partly drawn) | > 800 nM
29 | O=C1Nc2ccccc2C(c2ccccc2)=NC1Nc1nnc(C2CC(F)(F)C2)o1 (stereo not drawn) | > 800 nM
30 | O=C1Nc2ccccc2C(c2ccccc2)=NC1Nc1nnc(C2CCC2)o1 (stereo not drawn) | > 800 nM
31 | COC(=O)c1nc(C)sc1N1CCOCC1 | < 400 nM
32 | O=C1Nc2ccccc2C(c2ccccc2)=NC1Nc1nnc(-c2ccc(-n3ccnc3)nc2)o1 (stereo not drawn) | > 800 nM
33 | CO[C@@H]1CCN(c2ccccc2-c2nnc(NC3N=C(c4ccccc4)c4ccccc4NC3=O)o2)C1 (stereo partly drawn) | > 800 nM
34 | O=C1Nc2ccccc2C(c2ccccc2)=NC1Nc1nnc(-c2cccnc2N2CCCC(F)(F)C2)o1 (stereo not drawn) | > 800 nM
35 | CC1(c2nnc(NC3N=C(c4ccccc4)c4ccccc4NC3=O)o2)CCNC1 (stereo not drawn) | > 800 nM
36 | O=C1Nc2ccccc2C(c2ccccc2)=N[C@@H]1Nc1nnc(-c2cccnc2N2CCOCC2)o1 | < 400 nM
37 | Cc1cc(-c2nnc(NC3N=C(c4ccccc4)c4ccccc4NC3=O)o2)ccc1-n1cncn1 (stereo not drawn) | in the range around 600 nM
38 | O=C1Nc2ccccc2C(c2ccccc2)=N[C@@H]1Nc1nnc(-c2ccc(N3C4CCC3COC4)cc2Cl)o1 | > 800 nM
39 | O=C1Nc2ccccc2C(c2ccccc2)=NC1Nc1nnc([C@H]2CCCO2)o1 (stereo partly drawn) | > 800 nM
40 | O=C1Nc2ccccc2C(c2ccccc2)=NC1Nc1nnc(C2CC3(CCNCC3)C2)o1 (stereo not drawn) | > 800 nM
41 | CC1(c2nnc(NC3N=C(c4ccccc4)c4ccccc4NC3=O)o2)CC1 (stereo not drawn) | > 800 nM
42 | COC1CN(c2ncccc2-c2nnc(NC3N=C(c4ccccc4)c4ccccc4NC3=O)o2)C1 (stereo not drawn) | > 800 nM
43 | O=C1Nc2ccccc2C(c2ccccc2)=NC1Nc1nnc(-c2cccnc2N2CCC(F)CC2)o1 (stereo not drawn) | > 800 nM
44 | C[C@@H]1CN(c2ncccc2-c2nnc(NC3N=C(c4ccccc4)c4ccccc4NC3=O)o2)CCO1 (stereo partly drawn) | > 800 nM
45 | O=C1Nc2ccccc2C(c2ccccc2)=NC1Nc1nnc(CC(F)(F)F)o1 (stereo not drawn) | > 800 nM
46 | O=C1Nc2ccccc2C(c2ccccc2)=NC1Nc1nnc(-c2ccc(-n3cncn3)nc2)o1 (stereo not drawn) | > 800 nM
47 | O=C1Nc2ccccc2C(c2ccccc2)=NC1Nc1nnc(-c2cccnc2N2CCC(O)CC2)o1 (stereo not drawn) | > 800 nM
48 | N#CCCc1nnc(NC2N=C(c3ccccc3)c3ccccc3NC2=O)o1 (stereo not drawn) | > 800 nM

Row | Structure (SMILES) | EC50
49 | CN1CCC(N2CCC[C@H]2c2nnc(NC3N=C(c4ccccc4)c4ccccc4NC3=O)o2)CC1 (stereo partly drawn) | > 800 nM
50 | CN1C(=O)C(Nc2nnc(-c3ccc(F)cc3)o2)N=C(c2ccccc2)c2ccccc21 (stereo not drawn) | > 800 nM
51 | CC(C)(Cc1ccccc1)c1nnc(NC2N=C(c3ccccc3)c3ccccc3NC2=O)o1 (stereo not drawn) | > 800 nM
52 | O=C1Nc2ccccc2C(c2ccccc2)=NC1Nc1nnc(-c2ccc(-n3cccn3)nc2)o1 (stereo not drawn) | > 800 nM
53 | O=C1Nc2ccccc2C(c2ccccc2)=NC1Nc1nnc(-c2cccc(-n3ccnc3)c2)o1 (stereo not drawn) | > 800 nM
54 | O=C1Nc2ccccc2C(c2ccccc2)=NC1Nc1nnc(-c2ccc(-n3cnnc3)cc2)o1 (stereo not drawn) | > 800 nM
55 | Cn1cc(-c2nnc(N[C@H]3N=C(c4ccccc4)c4ccccc4NC3=O)o2)c(N2CCOCC2)n1 | < 400 nM
56 | COCCOc1ccccc1-c1nnc(NC2N=C(c3ccccc3)c3ccccc3NC2=O)o1 (stereo not drawn) | > 800 nM
57 | O=C1Nc2ccccc2C(c2ccccc2)=NC1Nc1nnc(-c2cccnc2N2CC3CCC(C2)O3)o1 (stereo not drawn) | in the range around 600 nM
58 | CS(=O)(=O)Cc1nnc(NC2N=C(c3ccccc3)c3ccccc3NC2=O)o1 (stereo not drawn) | > 800 nM
59 | C[C@@H]1CN(c2ccc(-c3nnc(N[C@H]4N=C(c5ccccc5)c5ccccc5NC4=O)o3)c(Cl)c2)C[C@H](C)O1 | > 800 nM
60 | O=C1Nc2ccccc2C(c2ccccc2)=NC1Nc1nnc(C2(F)CC2)o1 (stereo not drawn) | > 800 nM
61 | COc1cc(-c2nnc(NC3N=C(c4ccccc4)c4ccccc4NC3=O)o2)ccc1-n1cnc(C)c1 (stereo not drawn) | > 800 nM
62 | Cn1ncc(N2CCOCC2)c1-c1nnc(N[C@H]2N=C(c3ccccc3)c3ccccc3NC2=O)o1 | in the range around 600 nM
63 | O=C1Nc2ccccc2C(c2ccccc2)=NC1Nc1nnc(C2CCOC2)o1 (stereo not drawn) | > 800 nM
64 | COC1CCN(c2cc(C(F)(F)F)cnc2-c2nnc(N[C@H]3N=C(c4ccccc4)c4ccccc4NC3=O)o2)CC1 | > 800 nM
65 | C[C@H]1CN(c2ncccc2-c2nnc(NC3N=C(c4ccccc4)c4ccccc4NC3=O)o2)CCO1 (stereo partly drawn) | in the range around 600 nM
66 | O=C1Nc2ccccc2C(c2ccccc2)=NC1Nc1nnc(-c2cccnc2N2CC(F)(F)C2)o1 (stereo not drawn) | > 800 nM
67 | N#Cc1ccc(-c2nnc(NC3N=C(c4ccccc4)c4ccccc4NC3=O)o2)s1 (stereo not drawn) | < 400 nM
68 | CN(c1nnc(-c2ccc(F)cc2)o1)C1N=C(c2ccccc2)c2ccccc2NC1=O (stereo not drawn) | > 800 nM
69 | O=C1Nc2ccccc2C(c2ccccc2)=NC1Nc1nnc(-c2cccnc2N2C[C@H]3COC[C@H]3C2)o1 (stereo partly drawn) | > 800 nM
70 | CC1(C)C[C@@H]1c1nnc(NC2N=C(c3ccccc3)c3ccccc3NC2=O)o1 (stereo partly drawn) | > 800 nM
71 | CO[C@H]1CCN(c2ncccc2-c2nnc(NC3N=C(c4ccccc4)c4ccccc4NC3=O)o2)C1 (stereo partly drawn) | > 800 nM
72 | CC1(Nc2nnc(-c3ccc(F)cc3)o2)N=C(c2ccccc2)c2ccccc2NC1=O (stereo not drawn) | > 800 nM

Row | Structure (SMILES) | EC50
73 | O=C1Nc2ccccc2C(c2ccccc2)=NC1Nc1nnc(-c2ccc(-n3ccnc3)cc2)o1 (stereo not drawn) | < 400 nM
74 | O=C1Nc2ccccc2C(c2ccccc2)=NC1Nc1nnc(-c2cccnc2N2C[C@H]3C[C@@H]2CO3)o1 (stereo partly drawn) | > 800 nM
75 | Cc1nc2ccc(-c3nnc(NC4N=C(c5ccccc5)c5ccccc5NC4=O)o3)cc2s1 (stereo not drawn) | in the range around 600 nM
76 | COCCOc1ccc(C(=O)OC)cc1 | > 800 nM
77 | COc1cnc(-c2nnc(NC3N=C(c4ccccc4)c4ccccc4NC3=O)o2)c(F)c1 (stereo not drawn) | > 800 nM
78 | O=C1Nc2ccccc2C(c2ccccc2)=NC1Nc1nnc(-c2ccccc2OC2CCOCC2)o1 (stereo not drawn) | > 800 nM
79 | O=C1Nc2ccccc2C(c2ccccc2)=NC1Nc1nnc(-c2ccccc2N2CCCOCC2)o1 (stereo not drawn) | > 800 nM
80 | Cc1ccc(-c2nnc(N[C@H]3N=C(c4ccccc4)c4ccccc4NC3=O)o2)c(N2CCOCC2)n1 | < 400 nM
81 | O=C1Nc2ccccc2C(c2ccccc2)=N[C@@H]1Nc1nnc(-c2ncc(C(F)(F)F)cc2N2CC3CCC(C2)O3)o1 | < 400 nM
82 | O=C1Nc2ccccc2C(c2ccccc2)=NC1Nc1nnc(-c2cccnc2N2CCCCC2)o1 (stereo not drawn) | > 800 nM
83 | CN1CCN(c2ccccc2-c2nnc(NC3N=C(c4ccccc4)c4ccccc4NC3=O)o2)CC1 (stereo not drawn) | > 800 nM
84 | O=C1Nc2ccccc2C(c2ccccc2)=NC1Nc1nnc(-c2ccc(OC3CCOCC3)cc2)o1 (stereo not drawn) | > 800 nM
85 | O=C1Nc2ccccc2C(c2ccccc2)=NC1Nc1nnc(-c2ccccc2N2CCS(=O)(=O)CC2)o1 (stereo not drawn) | > 800 nM
86 | O=C1Nc2ccccc2C(c2ccccc2)=NC1Nc1nnc(-c2ccc(-n3ccc(C(F)(F)F)n3)cc2)o1 (stereo not drawn) | > 800 nM
87 | Cc1cc(-n2cncn2)ccc1-c1nnc(NC2N=C(c3ccccc3)c3ccccc3NC2=O)o1 (stereo not drawn) | > 800 nM
88 | O=C1Nc2ccccc2C(c2ccccc2)=NC1Nc1nnc(-c2ccccc2NCc2ccccn2)o1 (stereo not drawn) | > 800 nM
89 | CC(C)(O)c1nnc(NC2N=C(c3ccccc3)c3ccccc3NC2=O)o1 (stereo not drawn) | > 800 nM
90 | CC(C)(C)c1nnc(NC2N=C(c3ccccc3)c3ccccc3NC2=O)o1 (stereo not drawn) | > 800 nM
91 | Cc1nc(-c2nnc(NC3N=C(c4ccccc4)c4ccccc4NC3=O)o2)ccc1C#N (stereo not drawn) | in the range around 600 nM
92 | Cn1nnc(-c2ccc(-c3nnc(NC4N=C(c5ccccc5)c5ccccc5NC4=O)o3)cc2)n1 (stereo not drawn) | > 800 nM
93 | COC1CCN(c2ncccc2-c2nnc(NC3N=C(c4ccccc4)c4ccccc4NC3=O)o2)CC1 (stereo not drawn) | > 800 nM
